{
  "source": "patent US20070149469A1",
  "about": "“Medical use of tbk-1 or of inhibitors thereof” (priority 2003, published 2007)",
  "key": {"[1]": {"system": "normal human dermal fibroblasts (NHDF)", "assay": "NHDF proliferation after transfer of supernatants from transfected HEK 293 cells, Alamar Blue", "type": "cell-based", "conditions": "25 μl HEK 293 supernatant, 4 days, versus empty vector", "description": "In order to investigate the cell type specificity of TBK-1, supernatants from transfected HEK 293 cells were also added to normal human dermal fibroblasts (NHDF). NHDF were seeded at 1,000 cells per well on 96-well tissue culture plates two days prior to the transfer in 100 μl complete Fibroblast Growth Medium (Promocell, Heidelberg). 24 h prior to the transfer the medium was changed to 100 μl Fibroblast Basal Medium (Promocell, Heidelberg) containing 75 μg/ml gentamycin, 50 ng/ml amphotericin B. After 25 μl of HEK 293 supernatant had been transferred, cells were incubated for 4 days and viable cell number was assessed by Alamar Blue reduction as above."}, "TBK-1 mRNA": {"system": "TBK-1 mRNA", "assay": "TBK-1 mRNA knock down by RNAi in HEK 293 cells, quantitative RT-PCR relative to G6PDH", "type": "cell-based, human", "conditions": "100 nM siRNA", "description": "Real-time PCR was carried out using a LightCycler (Roche Diagnostics). Reactions were set up in microcapillary tubes using the following final concentrations: 0.5 μM each of TBK-1 sense (TTGAAGAGGAGACAACAACAAGA) and TBK-1 antisense (CAT TCC ACC CAC CAC ATC T) primers, 3 mM MgCl2, 1×SYBR Greenmaster mix and 2 μl of cDNA.\n(§1) Cycling conditions for TBK-1 were as follows: denaturation (95° C. for 10 min), amplification and quantitation (95° C. for 10 s, 58° C. for 10 s and 72° C. for 13 s, with a single fluorescence measurement at the end of the 72° C. for 13 s segment) repeated 45 times. A melting curve program (55-95° C. with a heating rate of 0.1° C./s and continuous fluorescence measurement) and a cooling step to 40° C. followed.\n(§2) For relative quantification the procedure was repeated for G6PDH mRNA as reference gene. Data were analyzed using LightCycler analysis software.\n(§3) HEK 293 cells were transfected with double stranded RNAi oligos specific for TBK-1 using siPORT Amine according to the manufacture's protocol (Ambion Europe LTD, Cambridgeshire, United Kingdom). […] Under these conditions, increased expression of VEGF is observed and can be detected via VEGF ELISA (as shown in example 3).\nTo determine the functionality of the RNAi molecule regarding inhibition of TBK-1 expression, relative expression levels of TBK-1 mRNAs were analysed by quantitative real-time PCR. […]"}, "VEGF mRNA": {"system": "VEGF mRNA", "assay": "Hypoxia (CoCl2)-induced VEGF mRNA expression in HEK 293 cells after TBK-1 RNAi, quantitative RT-PCR relative to G6PDH", "type": "cell-based, human", "conditions": "100 nM siRNA", "description": "Real-time PCR was carried out using a LightCycler (Roche Diagnostics). Reactions were set up in microcapillary tubes using the following final concentrations: 0.5 μM each of VEGF sense (CTTGCCTTGCTGCTCTACCT) and VEGF antisense (GATTCTGCCCTCCTCCTTCT) primers, 3 mM MgCl2, 1×SYBR Greenmaster mix and 2 μl of cDNA. For TBK-1 0.5 μM each of TBK-1 sense (TTGAAGAGGAGACAACAACAAGA) and TBK-1 antisense (CAT TCC ACC CAC CAC ATC T) primers were used.\nas §1, with “VEGF” for “TBK-1”, “followed. Cycling conditions for TBK-1 were identical.” for “followed.”\nas §2\nas §3, with “3). […]” for “3).”"}},
  "data": [
    {"substance": "FGF-2", "values": [
      {"measurement": "stimulation of NHDF proliferation", "setting": "[1]", "value": "clearly responsive"}
    ]},
    {"substance": "TBK-1 RNAi: double stranded RNAi oligo specific for TBK-1: sense GGA GAC AAC AAC AAG ACA Utt, antisense AUG UCU UGU UGU UGU CUC Ctc (sense GGAGACAACAACAAGACAU; antisense AUGUCUUGUUGUUGUCUCCC; listed as RNA, chemistry not given here)", "values": [
      {"measurement": "inhibition of expression of TBK-1 mRNA", "setting": "TBK-1 mRNA", "value": "> 85", "unit": "%"},
      {"measurement": "induction of VEGF mRNA under hypoxia", "setting": "VEGF mRNA", "value": "significantly reduces"}
    ]}
  ]
}
